Laboratory results as given in patent US8592410B2, “Cyclic inhibitors of 11BETA-hydroxysteroid dehydrogenase 1” (Vitae Pharmaceuticals, Inc., priority 2008, dated 2013).
Like-named read-outs stand apart in the source and are kept apart here.

What was measured:
[1] = Biological Test Example 5: Fraction Unbound in Human Plasma (equilibrium dialysis); assay type: in vitro ADME
[2] = biological target: human recombinant cytochrome P450 3A4 (Homo sapiens (Human), UniProt P08684); test: Biological Test Example 6: CYP3A4 Inhibition; assay type: in vitro ADME
human recombinant cytochrome P450 3A4, sequence (P08684 whole entry): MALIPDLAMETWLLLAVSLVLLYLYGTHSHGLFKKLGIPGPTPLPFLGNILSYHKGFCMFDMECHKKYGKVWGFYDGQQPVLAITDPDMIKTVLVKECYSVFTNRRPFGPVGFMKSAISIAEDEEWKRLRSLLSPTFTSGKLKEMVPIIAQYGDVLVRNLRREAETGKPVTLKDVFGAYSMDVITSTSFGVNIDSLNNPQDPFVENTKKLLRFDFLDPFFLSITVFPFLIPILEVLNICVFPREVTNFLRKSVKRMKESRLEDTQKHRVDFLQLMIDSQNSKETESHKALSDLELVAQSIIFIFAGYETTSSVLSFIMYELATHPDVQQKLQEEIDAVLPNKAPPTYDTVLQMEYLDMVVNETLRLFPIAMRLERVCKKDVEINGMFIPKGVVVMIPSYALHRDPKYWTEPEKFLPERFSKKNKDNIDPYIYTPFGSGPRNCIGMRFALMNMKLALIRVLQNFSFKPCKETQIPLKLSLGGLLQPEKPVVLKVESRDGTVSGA

[3] = biological target: T1, human recombinant cytochrome P450 2C9 (Homo sapiens (Human), UniProt P11712)
T1 sequence (P11712 whole entry): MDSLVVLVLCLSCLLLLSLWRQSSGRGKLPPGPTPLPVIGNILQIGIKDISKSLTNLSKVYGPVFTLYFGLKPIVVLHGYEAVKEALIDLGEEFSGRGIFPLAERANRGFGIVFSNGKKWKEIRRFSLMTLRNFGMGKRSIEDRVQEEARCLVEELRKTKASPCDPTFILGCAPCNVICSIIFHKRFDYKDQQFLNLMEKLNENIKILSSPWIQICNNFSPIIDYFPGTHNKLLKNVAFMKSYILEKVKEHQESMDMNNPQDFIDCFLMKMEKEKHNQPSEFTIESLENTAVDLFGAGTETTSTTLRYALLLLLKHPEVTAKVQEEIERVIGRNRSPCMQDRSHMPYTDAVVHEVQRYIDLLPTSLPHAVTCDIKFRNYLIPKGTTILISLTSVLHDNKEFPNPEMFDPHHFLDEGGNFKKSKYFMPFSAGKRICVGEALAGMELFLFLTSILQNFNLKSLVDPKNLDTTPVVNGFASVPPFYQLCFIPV

[4] = biological target: T2, human recombinant cytochrome P450 2C19 (Homo sapiens (Human), UniProt P33261)
T2 sequence (P33261 whole entry): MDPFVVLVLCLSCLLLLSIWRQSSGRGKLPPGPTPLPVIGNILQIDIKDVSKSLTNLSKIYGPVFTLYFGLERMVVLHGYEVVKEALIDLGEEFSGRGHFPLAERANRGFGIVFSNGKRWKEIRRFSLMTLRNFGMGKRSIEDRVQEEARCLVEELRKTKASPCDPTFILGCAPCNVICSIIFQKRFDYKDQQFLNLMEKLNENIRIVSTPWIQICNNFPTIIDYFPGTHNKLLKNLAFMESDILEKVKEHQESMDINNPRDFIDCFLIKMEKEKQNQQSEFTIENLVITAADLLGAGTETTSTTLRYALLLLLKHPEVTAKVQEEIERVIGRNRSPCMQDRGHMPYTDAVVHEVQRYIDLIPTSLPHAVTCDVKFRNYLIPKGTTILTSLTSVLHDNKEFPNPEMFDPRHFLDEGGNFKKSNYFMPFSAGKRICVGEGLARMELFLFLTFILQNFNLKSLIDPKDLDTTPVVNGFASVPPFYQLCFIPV

[5] = biological target: T2, human recombinant cytochrome P450 2C19; test: Biological Test Example 8: CYP2C19 Inhibition; conditions: read-out: Biological Test Example 8 CYP2C19, IC50
[6] = biological target: T1, human recombinant cytochrome P450 2C9; test: Biological Test Example 7: CYP2C9 Inhibition (Naproxen O-demethylation); conditions: read-out: Biological Test Example 7 CYP2C9, IC50; [O-methyl-14C]-Naproxen substrate
CYP2C9 [7] = biological target: T3, CYP2C9 (Homo sapiens (Human), UniProt P11712); test: in vitro
T3 sequence (P11712 whole entry): as the sequence (P11712 whole entry) above

[8] = biological target: T2, human recombinant cytochrome P450 2C19; test: biochemical
CYP2C9 [9] = biological target: T3, CYP2C9; conditions: pH 8
CYP2C9 [10] = biological target: T3, CYP2C9; test: Biological Test Example 9: CYP2C9 Inhibition (Invitrogen kit, OOMR fluorogenic substrate); conditions: read-out: Biological Test Example 9 CYP2C9 IC50
[11] = biological target: 11β-HSD1 (human liver microsomes) (Homo sapiens (Human), UniProt P28845); conditions: read-out: Average % control inhibition at 100 nM
11β-HSD1 (human liver microsomes), sequence (P28845 whole entry): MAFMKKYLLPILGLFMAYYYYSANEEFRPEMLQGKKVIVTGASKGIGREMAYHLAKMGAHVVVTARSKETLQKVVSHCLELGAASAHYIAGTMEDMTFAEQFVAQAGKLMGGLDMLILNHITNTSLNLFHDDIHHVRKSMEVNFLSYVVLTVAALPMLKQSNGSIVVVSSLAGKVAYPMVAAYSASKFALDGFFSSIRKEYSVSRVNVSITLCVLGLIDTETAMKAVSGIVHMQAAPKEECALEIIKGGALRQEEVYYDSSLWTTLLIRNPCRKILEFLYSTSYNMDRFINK

[12] = read-out: Biological Test Example 6 CYP3A4, IC50

Compound: C[C@@H](c1ccc(-c2ccc(F)cc2)cc1)N1CC[C@](CCC(N)=O)(c2ccccc2)OC1=O [Comparator Compound 11, reference compound]
- fraction unbound [1]: 0.007
- IC50 [2, 12]: 14.1 µM

Compound: C[C@@H](c1ccc(-c2ccc(=O)n(C)n2)cc1)N1CC[C@](CC(C)(C)O)(c2ccc(F)cc2)OC1=O [Example 13, (S)-6-(4-fluorophenyl)-6-(2-hydroxy-2-methylpropyl)-3-((S)-1-(4-(1-methyl-6-oxo-1,6-dihydropyridazin-3-yl)phenyl)ethyl)-1,3-oxazinan-2-one]
- IC50 [2, 12]: > 50 µM
- IC50 [3]: > 50 µM
- IC50 [4]: > 50 µM

Compound: Cc1cc(-c2ccc([C@H](C)N3CC[C@](CC(C)(C)O)(c4ccccc4)OC3=O)cc2)nn(C)c1=O [Example 17*, 3-{(S)-1-[4-(1,5-Dimethyl-6-oxo-1,6-dihydro-pyridazin-3-yl)-phenyl]-ethyl}-(S)-6-(2-hydroxy-2-methyl-propyl)-6-phenyl-[1,3]oxazinan-2-one]
- IC50 [2, 12]: 31 µM
- IC50 [5]: > 50 µM
- IC50 [6]: > 50 µM

Compound: C[C@@H](c1ccc(-c2ccc(=O)n(CC(F)(F)F)n2)cc1)N1CC[C@](CC(C)(C)O)(c2ccccc2)OC1=O [Example 16, (S)-6-(2-hydroxy-2-methylpropyl)-3-((S)-1-(4-(6-oxo-1-(2,2,2-trifluoroethyl)-1,6-dihydropyridazin-3-yl)phenyl)ethyl)-6-phenyl-1,3-oxazinan-2-one]
- IC50 [2, 12]: 15.6 µM
- IC50 [3]: 13 µM
- IC50 [4]: 18.9 µM

Compound: C[C@@H](c1ccc(-c2ccc(=O)n(CC3CC3)n2)cc1)N1CC[C@](CC(C)(C)O)(c2ccccc2)OC1=O [Example 19*, 3-{(S)-1-[4-(1-Cyclopropylmethyl-6-oxo-1,6-dihydro-pyridazin-3-yl)-phenyl]-ethyl}-(S)-6-(2-hydroxy-2-methyl-propyl)-6-phenyl-[1,3]oxazinan-2-one]
- IC50 ([2]; human): 5.7 µM
- IC50 [4]: 5.4 µM

Compound: C[C@@H](c1ccc(-c2ccc(=O)n(C)n2)cc1)N1CC[C@](CC(C)(C)O)(c2ccccc2)OC1=O [Example 12, (S)-6-(2-hydroxy-2-methylpropyl)-3-((S)-1-(4-(1-methyl-6-oxo-1,6-dihydropyridazin-3-yl)phenyl)ethyl)-6-phenyl-1,3-oxazinan-2-one]
- fraction unbound [1]: 0.022
- IC50 (CYP2C9 [7]): > 50 µM
- IC50 [8]: > 50 µM

Compound: C[C@@H](c1ccc(-c2ccc(=O)n(C)n2)cc1)N1CC[C@](CCCO)(c2ccc(F)cc2)OC1=O [Example 10, (R)-6-(4-fluorophenyl)-6-(3-hydroxypropyl)-3-((S)-1-(4-(1-methyl-6-oxo-1,6-dihydropyridazin-3-yl)phenyl)ethyl)-1,3-oxazinan-2-one]
- IC50 (CYP2C9 [9]): 14.2 µM

Compound: O=C1O[C@@](CCO)(c2ccccc2)CCN1c1cccc(-c2ccc(F)cc2)n1 [Comparator Compound 4]
- IC50 (CYP2C9 [10]): 5.1 µM

Compound: C[C@@H](c1ccc(-c2ccc(F)cc2)cc1)N1CC[C@](CC(C)(C)O)(c2ccccc2)OC1=O [Comparator Compound 12, reference compound]
- fraction unbound [1]: 0.004
- IC50 [2, 12]: 4.9 µM

Compound: CCn1nc(-c2ccc([C@H](C)N3CC[C@](CC(C)(C)O)(c4ccccc4)OC3=O)cc2)ccc1=O [Example 14, (S)-3-((S)-1-(4-(1-ethyl-6-oxo-1,6-dihydropyridazin-3-yl)phenyl)ethyl)-6-(2-hydroxy-2-methylpropyl)-6-phenyl-1,3-oxazinan-2-one]
- IC50 ([2]; human): 32.7 µM
- IC50 [3]: > 50 µM
- IC50 [4]: 46.3 µM

Compound: O=C1O[C@@](CCO)(c2ccccc2)CCN1c1cccc(-c2ccc(F)cc2F)c1 [Comparator Compound 1]
- IC50 (CYP2C9 [10]): 27 µM

Compound: C[C@@H](c1ccc(Br)cc1)N1CC[C@](CC(C)(C)O)(c2ccccc2)OC1=O [Comparator Compound 15, reference compound]
- IC50 [2, 12]: 3.1 µM
- IC50 [3]: 7.7 µM
- IC50 [4]: < 0.4 µM
- IC50 (CYP2C9 [9]): 9.5 µM

Compound: C[C@@H](c1ccc(-c2ccc(=O)n(C3CC3)n2)cc1)N1CC[C@](CC(C)(C)O)(c2ccccc2)OC1=O [Example 20*, 3-{(S)-1-[4-(1-Cyclopropyl-6-oxo-1,6-dihydro-pyridazin-3-yl)-phenyl]-ethyl}-(S)-6-(2-hydroxy-2-methyl-propyl)-6-phenyl-[1,3]oxazinan-2-one]
- IC50 [2, 12]: 15.7 µM
- IC50 [5]: 13.1 µM
- IC50 [6]: 28.8 µM

Compound: C[C@@H](c1ccc(OC(F)F)cc1)N1CC[C@](CCO)(c2ccc(F)cc2)OC1=O [Comparator Compound 14, reference compound]
- IC50 [2, 12]: 19.7 µM
- IC50 [3]: 25.9 µM
- IC50 [4]: 6.4 µM
- IC50 (CYP2C9 [9]): 24.6 µM

Compound: C[C@@H](c1ccc(-c2ccc(F)cc2F)cc1)N1CC[C@](CC(C)(C)O)(c2ccc(F)cc2)OC1=O [Comparator Compound 6, reference compound]
- IC50 [2, 12]: 4.4 µM
- IC50 [5]: 8.6 µM
- IC50 [6]: 2.3 µM
- IC50 (CYP2C9 [10]): 5 µM

Compound: O=C1OC(CCO)(c2ccccc2F)CCN1c1cccc(-c2ccc(F)cc2F)n1 (stereo not drawn) [Comparator Compound 2]
- IC50 (CYP2C9 [10]): 1.4 µM

Compound: Cc1cc(=O)n(C)nc1-c1ccc([C@H](C)N2CC[C@](CC(C)(C)O)(c3ccccc3)OC2=O)cc1 [Example 18*, 3-{(S)-1-[4-(1,4-Dimethyl-6-oxo-1,6-dihydro-pyridazin-3-yl)-phenyl]-ethyl}-(S)-6-(2-hydroxy-2-methyl-propyl)-6-phenyl-[1,3]oxazinan-2-one]
- IC50 ([2]; human): > 50 µM
- IC50 [5]: > 50 µM
- IC50 [6]: > 50 µM
- inhibition at 0.1 µM [11]: 63%

Compound: C[C@@H](c1ccc(Br)cc1)N1CC[C@](CC(C)(C)O)(c2ccc(F)cc2)OC1=O [Comparator Compound 13, reference compound]
- IC50 [2, 12]: 4.4 µM
- IC50 [5]: < 0.4 µM
- IC50 [6]: 5.6 µM
- IC50 (CYP2C9 [10]): 7.3 µM
